Assay [1] has as its target T1, factor Xa (Homo sapiens, UniProt P00742).
T1 construct: followed by the addition of factor Xa (final concentration, 2.5 nmol·L^–1)
As to the kind of experiment: Inhibition of factor Xa, kinetics of hydrolysis of chromogenic substrate S2765. The settings on record: 30 μM compound; factor Xa 2.5 nmol/L, S2765 200 μmol/L, pH 8.0; read-out: Percent Inhibition at 30 μM, Xa. The class given is biochemical. The procedure: We measured the kinetics of the hydrolysis of the specific substrates S2765 or S2366 by factors Xa and XIa, respectively, in the buffer solution and in the presence of various concentrations of compounds.
(§1) A specific low-molecular-weight chromogenic substrate, S2765 (Z-D-Arg-Gly-Arg-pNA·2HCl), was used in the case of factor Xa, while the substrate S2366 (pyroGlu-Pro-ArgpNA·HCl) (both substrates from Chromogenix, USA) was used for factor XIa.
A buffer containing 140 mM NaCl, 20 mM HEPES, and 0.1% PEG 6000 (pH 8.0) was placed in the wells of a 96-well plate, followed by the addition of factor Xa (final concentration, 2.5 nmol·L^–1) or XIa (final concentration 0.8 nmol·L^–1), the substrate S2765 (final concentration, 200 μmol·L^–1) or S2366 (final concentration, 200 μmol·L^–1), and a solution of the test compound in DMSO (final concentration, 30 μmol·L^–1; the DMSO content in the well was no more than 2%). […] The initial rate of substrate degradation was determined from the initial slope of the 4-nitroaniline-formation curve. The rate of substrate degradation by the enzyme in the presence of the inhibitor was expressed as a percentage relative to the rate of substrate degradation in the absence of the inhibitor. The data obtained were processed using GraphPad Prism and OriginPro 8 software.

For assay [2], the target named is T2, factor XIa (Homo sapiens, UniProt P03951). As to the kind of experiment: Inhibition of factor XIa, kinetics of hydrolysis of chromogenic substrate S2366. It counts as biochemical. To be noted: 30 μM compound; factor XIa 0.8 nmol/L, S2366 200 μmol/L, pH 8.0; read-out: Percent Inhibition at 30 μM, XIa. The procedure: Compounds 12, 14 and 16 were evaluated for their anticoagulant activity against factors Xa and Xia, and the results are presented in Table 1. For the best Xa and XIa inhibitors, additional measurements were performed to determine the IC50 values. We measured the kinetics of the hydrolysis of the specific substrates S2765 or S2366 by factors Xa and XIa, respectively, in the buffer solution and in the presence of various concentrations of compounds.
as §1
A buffer containing 140 mM NaCl, 20 mM HEPES, and 0.1% PEG 6000 (pH 8.0) was placed in the wells of a 96-well plate, followed by the addition of factor Xa (final concentration, 2.5 nmol·L^–1) or XIa (final concentration 0.8 nmol·L^–1), the substrate S2765 (final concentration, 200 μmol·L^–1) or S2366 (final concentration, 200 μmol·L^–1), and a solution of the test compound in DMSO (final concentration, 30 μmol·L^–1; the DMSO content in the well was no more than 2%). The kinetics of the formation of p-nitroaniline were measured using a THERMOmax Microplate Reader (Molecular Devices Corporation, USA) using the absorption of light with a wavelength of 405 nm. The initial rate of substrate degradation was determined from the initial slope of the 4-nitroaniline-formation curve. The rate of substrate degradation by the enzyme in the presence of the inhibitor was expressed as a percentage relative to the rate of substrate degradation in the absence of the inhibitor. The data obtained were processed using GraphPad Prism and OriginPro 8 software.

Assay [3] has as its target T2, factor XIa. Set-up: method as in earlier work. The settings on record: known actives used in validation of docking protocol, ref [1]-[6] of Table S2, column Ligand ID, cited from earlier work.
Assay [4] concerns the target T1, factor Xa. The settings on record: cited from earlier work.

The structures appear in SMILES notation.

These results are taken from publication PMC10179972, “New Hybrid Tetrahydropyrrolo[3,2,1-ij]quinolin-1-ylidene-2-thioxothiazolidin-4-ones as New Inhibitors of Factor Xa and Factor XIa: Design, Synthesis, and In Silico and Experimental Evaluation” (Molecules, 2023).

T1 sequence (P00742 235-488 limits assumed): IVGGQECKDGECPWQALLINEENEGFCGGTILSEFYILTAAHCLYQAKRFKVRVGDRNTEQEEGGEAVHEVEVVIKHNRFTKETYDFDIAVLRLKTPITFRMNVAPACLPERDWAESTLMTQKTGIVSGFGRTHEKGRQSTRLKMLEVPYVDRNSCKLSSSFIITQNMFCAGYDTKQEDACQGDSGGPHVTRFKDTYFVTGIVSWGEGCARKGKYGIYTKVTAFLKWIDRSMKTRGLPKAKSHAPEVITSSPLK
T1 sequence (P00742 41-179 partner limits assumed): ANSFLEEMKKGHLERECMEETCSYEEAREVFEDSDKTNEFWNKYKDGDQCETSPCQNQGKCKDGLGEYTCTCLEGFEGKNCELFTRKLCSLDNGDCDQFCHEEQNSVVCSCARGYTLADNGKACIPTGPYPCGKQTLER
T2 sequence (P03951 388-625 limits assumed): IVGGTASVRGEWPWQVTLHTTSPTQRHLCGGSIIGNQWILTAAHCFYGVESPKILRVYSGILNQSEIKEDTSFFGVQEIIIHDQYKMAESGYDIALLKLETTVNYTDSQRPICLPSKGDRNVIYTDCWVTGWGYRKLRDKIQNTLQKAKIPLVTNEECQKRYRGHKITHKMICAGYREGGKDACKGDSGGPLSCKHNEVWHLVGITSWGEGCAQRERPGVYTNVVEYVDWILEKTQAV
T2 sequence (P03951 19-387 partner limits assumed): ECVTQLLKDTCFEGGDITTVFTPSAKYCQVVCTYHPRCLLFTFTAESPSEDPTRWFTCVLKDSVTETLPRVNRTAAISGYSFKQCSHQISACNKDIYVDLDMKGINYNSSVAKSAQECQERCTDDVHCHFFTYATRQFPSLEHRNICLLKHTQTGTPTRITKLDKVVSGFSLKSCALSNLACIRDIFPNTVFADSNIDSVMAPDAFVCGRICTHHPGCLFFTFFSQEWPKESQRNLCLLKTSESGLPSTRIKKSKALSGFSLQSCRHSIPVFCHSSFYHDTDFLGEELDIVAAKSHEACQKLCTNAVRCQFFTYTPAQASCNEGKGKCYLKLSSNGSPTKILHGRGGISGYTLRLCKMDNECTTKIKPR

Usually inhibition stands for the drop in the measured response relative to a control, in per cent. For `C#CCN1C(=O)/C(=C2/C(=O)N3c4c2cc(F)cc4C(C)(c2ccccc2)CC3(C)C)SC1=S` (stereo not shown) [14a, (Z)-5-(8-Fluoro-4,4,6-trimethyl-2-oxo-6-phenyl-5,6-dihydro-4H-pyrrolo[3,2,1-ij]quinolin-1(2H)-ylidene)-3-(prop-2-yn-1-yl)-2-thioxothiazolidin-4-one], the inhibition at 30 µM on factor Xa [1] stood at 36%; on factor XIa [2], 3%.
Taken in the same sequence, the figures for `C#CCN1C(=O)/C(=C2/C(=O)N3c4c2cc(F)cc4C(C)(c2ccc(Cl)cc2)CC3(C)C)SC1=S` (stereo not shown) [14b, (Z)-5-(6-(4-Chlorophenyl)-8-fluoro-4,4,6-trimethyl-2-oxo-5,6-dihydro-4H-pyrrolo[3,2,1-ij]quinolin-1(2H)-ylidene)-3-(prop-2-yn-1-yl)-2-thioxothiazolidin-4-one] were 49% and 17%.
Taken in the same sequence, the figures for `CCOc1cc2c3c(c1)C(C)CC(C)(C)N3C(=O)/C2=C1\NC(=S)NC1=O` (stereo not shown) [16a, (Z)-8-Ethoxy-4,4,6-trimethyl-1-(5-oxo-2-thioxoimidazolidin-4-ylidene)-5,6-dihydro-4H-pyrrolo[3,2,1-ij]quinolin-2(1H)-one] were 2% and 6%.
Take `Cc1cc2c3c(c1)C(C)CC(C)(C)N3C(=O)/C2=C1\NC(=S)NC1=O` (stereo not shown) [16b, (Z)-4,4,6,8-Tetramethyl-1-(5-oxo-2-thioxoimidazolidin-4-ylidene)-5,6-dihydro-4H-pyrrolo[3,2,1-ij]quinolin-2(1H)-one]: the values for the inhibition at 30 µM at factor Xa [1] and at factor XIa [2] were 31% and 5%, respectively.
Taken in the same sequence, the figures for `CC1(c2ccccc2)CC(C)(C)N2C(=O)/C(=C3\NC(=S)NC3=O)c3cccc1c32` (stereo not shown) [16c, (Z)-4,4,6-Trimethyl-1-(5-oxo-2-thioxoimidazolidin-4-ylidene)-6-phenyl-5,6-dihydro-4H-pyrrolo[3,2,1-ij]quinolin-2(1H)-one] were 45% and 57%.
Taken in the same sequence, the figures for `CC1(c2ccccc2)CC(C)(C)N2C(=O)/C(=C3\NC(=S)NC3=O)c3cc(F)cc1c32` (stereo not shown) [16d, (Z)-8-Fluoro-4,4,6-trimethyl-1-(5-oxo-2-thioxoimidazolidin-4-ylidene)-6-phenyl-5,6-dihydro-4H-pyrrolo[3,2,1-ij]quinolin-2(1H)-one] were 17% and 2%.
Taken in the same sequence, the figures for `Cc1cc2c3c(c1)C(C)(c1ccc(Cl)cc1)CC(C)(C)N3C(=O)/C2=C1\NC(=S)NC1=O` (stereo not shown) [16e, (Z)-6-(4-Chlorophenyl)-4,4,6,8-tetramethyl-1-(5-oxo-2-thioxoimidazolidin-4-ylidene)-5,6-dihydro-4H-pyrrolo[3,2,1-ij]quinolin-2(1H)-one] were 59% and 86%.
What is called Ki is the dissociation constant of the complex between target and ligand, obtained from inhibition or displacement. Turning to `CC(C)CC(=O)Nc1cc(-c2ccc(C(N)=O)cc2C(=O)O)cc([C@@H]2C[C@](C)(c3ccccc3)c3cc(C(=N)N)ccc3N2)c1` [BMS-654457], the Ki on factor XIa [3] (read-out: Ki, factor XIa (Table S2, values in brackets)) was 0.2 nM.
In general, IC50 refers to the point on the concentration scale where inhibition reaches its midpoint. For `CS(=O)(=O)c1ccccc1-c1ccc(N2CC[C@H](NS(=O)(=O)CCc3ccc(Cl)s3)C2=O)c(F)c1` [GSV], the IC50 at factor Xa [4] (known actives of crystal complexes used in validation of docking protocol, no reference given, read-out: IC50, factor Xa (Table S2)) is 0.2 nM.
`Cc1cc(=O)[nH]c2ccc(Cl)cc12` [MVN]: the IC50 at factor XIa [3] is above 1.1 nM.
Regarding `O=C(NC[C@H]1CN(c2ccc(N3CCOCC3=O)cc2)C(=O)O1)c1ccc(Cl)s1` [Rivaroxaban, reference compound], the “factor-Xa inhibitor potency in words” value on factor Xa [4] was “subnanomolar”. For the same molecule, the inhibition at 30 µM on factor XIa [2] is 8%.
